Reference: ChEMBL document CHEMBL3885881, “DrugMatrix”

Species on record: Rattus norvegicus
Assay: DrugMatrix - Regimen: Daily Repeat
Assay type: toxicity, organism-based, Sprague-Dawley
Set-up: regimen Daily Repeat, gender Male, age 6-8 weeks
Settings: in vivo, po, route oral GAVAGE, vehicle 100 % WATER; for ABSOLUTE BASOPHIL / ABSOLUTE EOSINOPHIL / ABSOLUTE LYMPHOCYTE / ABSOLUTE MONOCYTE / ABSOLUTE SEGMENTED NEUTROPHIL / BASOPHIL / EOSINOPHIL / ERYTHROCYTE COUNT / HEMATOCRIT / HEMOGLOBIN / LEUKOCYTE COUNT / LYMPHOCYTE / MEAN CORPUSCULAR HEMOGLOBIN / MEAN CORPUSCULAR HEMOGLOBIN CONCENTRATION / MEAN CORPUSCULAR VOLUME / MONOCYTE / NEUTROPHIL / NUCLEATED RED BLOOD CELLS / PLATELET COUNT: tissue Blood; for ALANINE AMINOTRANSFERASE / ALBUMIN / ALKALINE PHOSPHATASE / ASPARTATE AMINOTRANSFERASE / BLOOD UREA NITROGEN / CARBON DIOXIDE / CHLORIDE / CHOLESTEROL / CREATINE PHOSPHOKINASE / CREATININE / GLUCOSE / LACTATE DEHYDROGENASE / LIPASE / PHOSPHORUS / POTASSIUM / SODIUM / TOTAL BILIRUBIN / TOTAL PROTEIN / URIC ACID: tissue Plasma
[1] = 4 mg/kg, 72 h, dose level Low, time 3 day
[2] = 4 mg/kg, 120 h, dose level Low, time 5 day
[3] = 1100 mg/kg, 72 h, dose level High, time 3 day
[4] = 1100 mg/kg, 120 h, dose level High, time 5 day

COc1ccnc(C[S+]([O-])c2nc3ccc(OC(F)F)cc3[nH]2)c1OC (configuration not stated) [PANTOPRAZOLE]
ABSOLUTE BASOPHIL [1]: 0 CELLS/uL | ABSOLUTE EOSINOPHIL [1]: 0 CELLS/uL | ABSOLUTE LYMPHOCYTE [1]: 12700.33 CELLS/uL | ABSOLUTE MONOCYTE [1]: 129 CELLS/uL | ABSOLUTE SEGMENTED NEUTROPHIL [1]: 970.67 CELLS/uL | BASOPHIL [1]: 0% | EOSINOPHIL [1]: 0% | ERYTHROCYTE COUNT [1]: 5.41 x10E6/uL | HEMATOCRIT [1]: 34.33% | HEMOGLOBIN [1]: 13.7 G/DL | LEUKOCYTE COUNT [1]: 13.8 x10E3/uL | LYMPHOCYTE [1]: 91.33% | MEAN CORPUSCULAR HEMOGLOBIN [1]: 25.37 pg | MEAN CORPUSCULAR HEMOGLOBIN CONCENTRATION [1]: 39.93 G/DL | MEAN CORPUSCULAR VOLUME [1]: 63.43 fL | MONOCYTE [1]: 1% | NEUTROPHIL [1]: 7.67% | NUCLEATED RED BLOOD CELLS [1]: 0.67 /100WBC | PLATELET COUNT [1]: 1322.33 x10E3/uL | ALANINE AMINOTRANSFERASE [1]: 47 u/L | ALBUMIN [1]: 4.07 G/DL | ALKALINE PHOSPHATASE [1]: 370.67 u/L | ASPARTATE AMINOTRANSFERASE [1]: 94 u/L | BLOOD UREA NITROGEN [1]: 15.67 mg/dL | CARBON DIOXIDE [1]: 25.67 mmol/L | CHLORIDE [1]: 102.67 MEQ/L | CHOLESTEROL [1]: 70.33 mg/dL | CREATINE PHOSPHOKINASE [1]: 679.33 u/L | CREATININE [1]: 0.14 mg/dL | GLUCOSE [1]: 153.67 mg/dL | LACTATE DEHYDROGENASE [1]: 404.33 u/L | LIPASE [1]: 9 u/L | PHOSPHORUS [1]: 13.8 mg/dL | POTASSIUM [1]: 7.04 MEQ/L | SODIUM [1]: 146.43 MEQ/L | TOTAL BILIRUBIN [1]: 0.23 mg/dL | TOTAL PROTEIN [1]: 5.67 G/DL | URIC ACID [1]: 1.7 mg/dL | ABSOLUTE BASOPHIL [2]: 0 CELLS/uL | ABSOLUTE EOSINOPHIL [2]: 43.33 CELLS/uL | ABSOLUTE LYMPHOCYTE [2]: 13938.33 CELLS/uL | ABSOLUTE MONOCYTE [2]: 59 CELLS/uL | ABSOLUTE SEGMENTED NEUTROPHIL [2]: 859.33 CELLS/uL | BASOPHIL [2]: 0% | EOSINOPHIL [2]: 0.33% | ERYTHROCYTE COUNT [2]: 5.27 x10E6/uL | HEMATOCRIT [2]: 34.2% | HEMOGLOBIN [2]: 13.7 G/DL | LEUKOCYTE COUNT [2]: 14.9 x10E3/uL | LYMPHOCYTE [2]: 93.33% | MEAN CORPUSCULAR HEMOGLOBIN [2]: 26.07 pg | MEAN CORPUSCULAR HEMOGLOBIN CONCENTRATION [2]: 40.07 G/DL | MEAN CORPUSCULAR VOLUME [2]: 65.03 fL | MONOCYTE [2]: 0.33% | NEUTROPHIL [2]: 6% | NUCLEATED RED BLOOD CELLS [2]: 0.33 /100WBC | PLATELET COUNT [2]: 1411.33 x10E3/uL | ALANINE AMINOTRANSFERASE [2]: 54.67 u/L | ALBUMIN [2]: 4.17 G/DL | ALKALINE PHOSPHATASE [2]: 396 u/L | ASPARTATE AMINOTRANSFERASE [2]: 114.33 u/L | BLOOD UREA NITROGEN [2]: 17.67 mg/dL | CARBON DIOXIDE [2]: 26 mmol/L | CHLORIDE [2]: 102 MEQ/L | CHOLESTEROL [2]: 60.67 mg/dL | CREATINE PHOSPHOKINASE [2]: 690.67 u/L | CREATININE [2]: 0.13 mg/dL | GLUCOSE [2]: 144 mg/dL | LACTATE DEHYDROGENASE [2]: 666.67 u/L | LIPASE [2]: 9 u/L | PHOSPHORUS [2]: 14.27 mg/dL | POTASSIUM [2]: 6.77 MEQ/L | SODIUM [2]: 143.77 MEQ/L | TOTAL BILIRUBIN [2]: 0.2 mg/dL | TOTAL PROTEIN [2]: 5.8 G/DL | URIC ACID [2]: 1.57 mg/dL | ABSOLUTE BASOPHIL [3]: 0 CELLS/uL | ABSOLUTE EOSINOPHIL [3]: 0 CELLS/uL | ABSOLUTE LYMPHOCYTE [3]: 16363.67 CELLS/uL | ABSOLUTE MONOCYTE [3]: 197 CELLS/uL | ABSOLUTE SEGMENTED NEUTROPHIL [3]: 1639.33 CELLS/uL | BASOPHIL [3]: 0% | EOSINOPHIL [3]: 0% | ERYTHROCYTE COUNT [3]: 5.69 x10E6/uL | HEMATOCRIT [3]: 35.37% | HEMOGLOBIN [3]: 14 G/DL | LEUKOCYTE COUNT [3]: 18.2 x10E3/uL | LYMPHOCYTE [3]: 90.33% | MEAN CORPUSCULAR HEMOGLOBIN [3]: 24.67 pg | MEAN CORPUSCULAR HEMOGLOBIN CONCENTRATION [3]: 39.57 G/DL | MEAN CORPUSCULAR VOLUME [3]: 62.3 fL | MONOCYTE [3]: 1% | NEUTROPHIL [3]: 8.67% | NUCLEATED RED BLOOD CELLS [3]: 0.33 /100WBC | PLATELET COUNT [3]: 1283.67 x10E3/uL | ALANINE AMINOTRANSFERASE [3]: 51.67 u/L | ALBUMIN [3]: 4.03 G/DL | ALKALINE PHOSPHATASE [3]: 372.67 u/L | ASPARTATE AMINOTRANSFERASE [3]: 89 u/L | BLOOD UREA NITROGEN [3]: 17 mg/dL | CARBON DIOXIDE [3]: 29 mmol/L | CHLORIDE [3]: 98.67 MEQ/L | CHOLESTEROL [3]: 105.67 mg/dL | CREATINE PHOSPHOKINASE [3]: 255 u/L | CREATININE [3]: 0.16 mg/dL | GLUCOSE [3]: 134.33 mg/dL | LACTATE DEHYDROGENASE [3]: 182.67 u/L | LIPASE [3]: 11 u/L | PHOSPHORUS [3]: 12.2 mg/dL | POTASSIUM [3]: 7.39 MEQ/L | SODIUM [3]: 142.4 MEQ/L | TOTAL BILIRUBIN [3]: 0.23 mg/dL | TOTAL PROTEIN [3]: 5.67 G/DL | URIC ACID [3]: 1.67 mg/dL | ABSOLUTE BASOPHIL [4]: 0 CELLS/uL | ABSOLUTE EOSINOPHIL [4]: 57.33 CELLS/uL | ABSOLUTE LYMPHOCYTE [4]: 9481.67 CELLS/uL | ABSOLUTE MONOCYTE [4]: 24 CELLS/uL | ABSOLUTE SEGMENTED NEUTROPHIL [4]: 670.33 CELLS/uL | BASOPHIL [4]: 0% | EOSINOPHIL [4]: 0.33% | ERYTHROCYTE COUNT [4]: 5.57 x10E6/uL | HEMATOCRIT [4]: 33.33% | HEMOGLOBIN [4]: 13.7 G/DL | LEUKOCYTE COUNT [4]: 10.23 x10E3/uL | LYMPHOCYTE [4]: 91.67% | MEAN CORPUSCULAR HEMOGLOBIN [4]: 24.57 pg | MEAN CORPUSCULAR HEMOGLOBIN CONCENTRATION [4]: 41.13 G/DL | MEAN CORPUSCULAR VOLUME [4]: 59.83 fL | MONOCYTE [4]: 0.33% | NEUTROPHIL [4]: 7.67% | NUCLEATED RED BLOOD CELLS [4]: 0 /100WBC | PLATELET COUNT [4]: 1302.33 x10E3/uL | ALANINE AMINOTRANSFERASE [4]: 40.33 u/L | ALBUMIN [4]: 4.33 G/DL | ALKALINE PHOSPHATASE [4]: 318 u/L | ASPARTATE AMINOTRANSFERASE [4]: 84 u/L | BLOOD UREA NITROGEN [4]: 14.67 mg/dL | CARBON DIOXIDE [4]: 27 mmol/L | CHLORIDE [4]: 102.5 MEQ/L | CHOLESTEROL [4]: 129.33 mg/dL | CREATINE PHOSPHOKINASE [4]: 241.33 u/L | CREATININE [4]: 0.19 mg/dL | GLUCOSE [4]: 122.33 mg/dL | LACTATE DEHYDROGENASE [4]: 148 u/L | LIPASE [4]: 11.67 u/L | PHOSPHORUS [4]: 9.87 mg/dL | POTASSIUM [4]: 5.71 MEQ/L | SODIUM [4]: 145.65 MEQ/L | TOTAL BILIRUBIN [4]: 0.27 mg/dL | TOTAL PROTEIN [4]: 6.13 G/DL | URIC ACID [4]: 0.47 mg/dL
